Data reported in PubChem BioAssay AID1259411 (Chemical Carcinogenesis Research Information System (CCRIS), 2018).
Activity calls are given as the source filed them. No rule for the calls is given here.

System: rodent carcinogenicity bioassays, tumor incidence
Assay: CCRIS carcinogenicity studies
Method in brief: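 Archive of carcinogenicity, mutagenicity, tumor promotion and tumor inhibition results drawn from journals, NCI reports and other sources, expert-reviewed; covers 1985-2011 and is no longer updated.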

c1ccc2ncccc2c1
carcinogen call (Species: MOUSE, Route: ORAL, Tumor Site: Type of Lesion: LIVER): active; positive
carcinogen call (Species: MOUSE, Strain/Sex: CD-1/FEMALE, Route: INTRAPERITONEAL, Dose: 0, 0.25, 0.5, 1.0 UMOL IN DMSO TO NEWBORN MICE ON DAYS 1, 8 AND 15 OF LIFE RESPECTIVELY (TOTAL DOSE: 1.75 UMOL) (STUDY D, Dose: 0, 0.25, 0.5, 1.0 UMOL IN DMSO TO NEWBORN MICE ON DAYS 1, 8 AND 15 OF LIFE RESPECTIVELY (TOTAL DOSE: 1.75 UMOL) (STUDY D): inactive; negative
carcinogen call (Species: MOUSE, Strain/Sex: CD-1/FEMALE, Route: INTRAPERITONEAL, Dose: 0, 1.75 UMOL/MOUSE (TOTAL DOSE) ADMINISTERED DURING DAYS 1, 8, AND 15 OF LIFE (STUDY DURATION: 52 WK)): inactive; negative
carcinogen call (Species: MOUSE, Strain/Sex: CD-1/MALE, Route: INTRAPERITONEAL, Dose: 0, 0.25, 0.5, 1.0 UMOL IN DMSO TO NEWBORN MICE ON DAY 1,8 AND 15 OF LIFE RESPECTIVELY (TOTAL DOSE: 1,75 UMOL) (STUDY DUR, Dose: 0, 0.25, 0.5, 1.0 UMOL IN DMSO TO NEWBORN MICE ON DAY 1,8 AND 15 OF LIFE RESPECTIVELY (TOTAL DOSE: 1,75 UMOL) (STUDY DUR, Tumor Site: Type of Lesion: LIVER: HEPATOMA, ADENOMA): active; positive
carcinogen call (Species: MOUSE, Strain/Sex: CD-1/MALE, Route: INTRAPERITONEAL, Dose: 0, 1.75 UMOL/MOUSE (TOTAL DOSE) ADMINISTERED DURING DAYS 1, 8, AND 15 OF LIFE (STUDY DURATION: 52 WK), Tumor Site: Type of Lesion: LIVER: ADENOMA OR CARCINOMA): active; positive
carcinogen call (Species: RAT, Route: ORAL, Tumor Site: Type of Lesion: LIVER): active; positive
carcinogen call (Species: RAT, Strain/Sex: SPRAGUE-DAWLEY/FEMALE, Route: SUBCUTANEOUS, Dose: 0, 200 UMOL/KG IN DMSO INTO SUPRASCAPULAR AREA ON DAY 1 OF LIFE FOLLOWED BY 0, 100 UMOL 1/WK AT WK 2-7 THEN 0, 200 UMOL/, Dose: 0, 200 UMOL/KG IN DMSO INTO SUPRASCAPULAR AREA ON DAY 1 OF LIFE FOLLOWED BY 0, 100 UMOL 1/WK AT WK 2-7 THEN 0, 200 UMOL/): inactive; negative
carcinogen call (Species: RAT, Strain/Sex: SPRAGUE-DAWLEY/MALE, Route: SUBCUTANEOUS, Dose: 0, 200 UMOL/KG IN DMSO INTO SUPRASCAPULAR AREA ON DAY 1 OF LIFE FOLLOWED BY 0, 100 UMOL 1/WK AT WK 2-7 THEN 0, 200 UMOL/, Dose: 0, 200 UMOL/KG IN DMSO INTO SUPRASCAPULAR AREA ON DAY 1 OF LIFE FOLLOWED BY 0, 100 UMOL 1/WK AT WK 2-7 THEN 0, 200 UMOL/): inactive; negative
carcinogen call (Species: RAT, Strain/Sex: WISTAR/MALE, Route: ORAL, Dose: 0, 0.25% IN DIET FOR 4 WK (STUDY DURATION: 20 WK)): inactive; negative
carcinogen call (Species: RAT, Strain/Sex: WISTAR/MALE, Route: ORAL, Dose: 0, 0.25% IN DIET FOR 8 WK (STUDY DURATION: 20 WK)): inactive; negative
carcinogen call (Species: RAT, Strain/Sex: WISTAR/MALE, Route: ORAL, Dose: 0, 0.25% IN DIET FOR 12 WK (STUDY DURATION: 20 WK), Tumor Site: Type of Lesion: LIVER: HEMANGIOENDOTHELIOMA): active; positive
carcinogen call (Species: RAT, Strain/Sex: WISTAR/MALE, Route: ORAL, Dose: 0, 0.25% IN DIET FOR 16 WK (STUDY DURATION: 20 WK), Tumor Site: Type of Lesion: LIVER: HEMANGIOENDOTHELIOMA): active; positive
carcinogen call (Species: RAT, Strain/Sex: WISTAR/MALE, Route: ORAL, Dose: 0, 0.25% IN DIET FOR 20 WK (STUDY DURATION: 20 WK), Tumor Site: Type of Lesion: LIVER: HEMANGIOENDOTHELIOMA): active; positive

O=CC=O
carcinogen call (Species: MOUSE, Strain/Sex: CD-1/FEMALE, Route: DERMAL, Dose: 0, 50 UMOL/O.1 ML DMSO 2/WK FOR 5 WK FOLLOWED 1 WK LATER BY 0.1 ML ACETONE 2/WK FOR 47 WK (STUDY DURATION: 52 WK)): inactive; negative

CC1=C[C@]2(O[C@@H]3O[C@H](CO)[C@@H](O)[C@H](O)[C@H]3O)C[C@@H](C)C(=O)[C@@H]2[C@](C)(O)C12CC2
carcinogen call (Species: RAT, Strain/Sex: CD-1/FEMALE, Route: INTRAGASTRIC, Dose: 0, 100-150 MG/KG BW IN SALINE 2/WK FOR 8 WK THEN ONCE ON WK 9 (TOTAL DOSE: 0; 339 MG) (STUDY DURATION: 300 D), Dose: 0, 100-150 MG/KG BW IN SALINE 2/WK FOR 8 WK THEN ONCE ON WK 9 (TOTAL DOSE: 0; 339 MG) (STUDY DURATION: 300 D), Tumor Site: Type of Lesion: MAMMARY GLAND: ADENOCARCINOMA, CARCINOMA, SMALL INTESTINE: ADENOCARCINOMA, BLADDER: PAPILLOMA, Tumor Site: Type of Lesion: MAMMARY GLAND: ADENOCARCINOMA, CARCINOMA, SMALL INTESTINE: ADENOCARCINOMA, BLADDER: PAPILLOMA): active; positive
carcinogen call (Species: RAT, Strain/Sex: CD-1/FEMALE, Route: INTRAGASTRIC, Dose: 0, 780 MG/KG BW IN SALINE ONCE THEN 0, 100-200 MG/KG 1/WK FOR 8 WK (TOTAL DOSE: 0; 300 MG) (STUDY DURATION: 300 D), Dose: 0, 780 MG/KG BW IN SALINE ONCE THEN 0, 100-200 MG/KG 1/WK FOR 8 WK (TOTAL DOSE: 0; 300 MG) (STUDY DURATION: 300 D), Tumor Site: Type of Lesion: MAMMARY GLAND: ADENOCARCINOMA, CARCINOMA, SMALL INTESTINE: ADENOCARCINOMA): active; positive

CCNc1nc(Cl)nc(NC(C)(C)C#N)n1
carcinogen call (Species: Mouse, Strain/Sex: CD/Female (50 per group; 100 per group for controls), Route: Oral, Dose: 0, 10, 25, 1,000 ppm of 98% pure cyanazine in feed for two yr, Dose: 0, 10, 25, 1,000 ppm of 98% pure cyanazine in feed for two yr): inactive; negative
carcinogen call (Species: Mouse, Strain/Sex: CD/Male (50 per group; 100 per group for controls), Route: Oral, Dose: 0, 10, 25, 1,000 ppm of 98% pure cyanazine in feed for two yr, Dose: 0, 10, 25, 1,000 ppm of 98% pure cyanazine in feed for two yr): inactive; negative
carcinogen call (Species: RAT, Strain/Sex: CRL:CD BR/FEMALE, Route: ORAL, Dose: 0, 1, 5, 25, 50 PPM FOR 104 WK (STUDY DURATION: 104 WK), Dose: 0, 1, 5, 25, 50 PPM FOR 104 WK (STUDY DURATION: 104 WK)): inactive; negative

CCC(O)OC (centres undefined)
carcinogen call (Species: MOUSE, Strain/Sex: B6C3F1/FEMALE, Route: INHALATION, Dose: 0, 300, 1000, 3000 PPM 6 HR/D 5 D/WK FOR 2 YR (STUDY DURATION: 2 YR), Dose: 0, 300, 1000, 3000 PPM 6 HR/D 5 D/WK FOR 2 YR (STUDY DURATION: 2 YR)): inactive; negative
carcinogen call (Species: MOUSE, Strain/Sex: B6C3F1/MALE, Route: INHALATION, Dose: 0, 300, 1000, 3000 PPM 6 HR/D 5 D/WK FOR 2 YR (STUDY DURATION: 2 YR), Dose: 0, 300, 1000, 3000 PPM 6 HR/D 5 D/WK FOR 2 YR (STUDY DURATION: 2 YR)): inactive; negative
carcinogen call (Species: RAT, Strain/Sex: F344/FEMALE, Route: INHALATION, Dose: 0, 300, 1000, 3000 PPM 6 HR/D 5 D/WK FOR 2 YR (STUDY DURATION: 2 YR), Dose: 0, 300, 1000, 3000 PPM 6 HR/D 5 D/WK FOR 2 YR (STUDY DURATION: 2 YR)): inactive; negative
carcinogen call (Species: RAT, Strain/Sex: F344/MALE, Route: INHALATION, Dose: 0, 300, 1000, 3000 PPM 6 HR/D 5 D/WK FOR 2 YR (STUDY DURATION: 2 YR), Dose: 0, 300, 1000, 3000 PPM 6 HR/D 5 D/WK FOR 2 YR (STUDY DURATION: 2 YR)): inactive; negative

COc1nn(CSP(=S)(OC)OC)c(=O)s1
carcinogen call (Species: DOG, Strain/Sex: BEAGLE/FEMALE, Route: ORAL, Dose: 0, 0.5, 2, 4, 40, 140 PPM IN DIET FOR 1 YR (STUDY DURATION: 1 YR), Dose: 0, 0.5, 2, 4, 40, 140 PPM IN DIET FOR 1 YR (STUDY DURATION: 1 YR)): inactive; negative
carcinogen call (Species: DOG, Strain/Sex: BEAGLE/MALE, Route: ORAL, Dose: 0, 0.5, 2, 4, 40, 140 PPM IN DIET FOR 1 YR (STUDY DURATION: 1 YR), Dose: 0, 0.5, 2, 4, 40, 140 PPM IN DIET FOR 1 YR (STUDY DURATION: 1 YR)): inactive; negative

NC1=NCN([C@@H]2O[C@H](CO)[C@@H](O)[C@H]2O)C(=O)N1
carcinogen call (Species: RAT, Strain/Sex: F344/MALE, Route: INTRAPERITONEAL, Dose: 0, 50 MG/KG IN 0.9% SALINE 3/WK FOR 1 YR (STUDY DURATION: 1 YR)): inactive; negative

C=CC(O)c1ccc2c(c1)OCO2 (centres undefined)
carcinogen call (Species: MOUSE, Strain/Sex: CD-1/FEMALE, Route: ORAL, Dose: 0.083% IN DIET FROM D 1 TO 10, 0.17% FROM D 11 TO 20, 0.55% THEREAFTER TO 12 MO, Tumor Site: Type of Lesion: LIVER: HEPATOCELLULAR CARCINOMA): active; positive
carcinogen call (Species: MOUSE, Strain/Sex: CD-1/MALE, Route: SUBCUTANEOUS, Dose: TOTAL DOSE: 3.18 UMOL IN TRIOCTANOIN OVER 22 D, Tumor Site: Type of Lesion: LIVER: HEPATOCELLULAR CARCINOMA): active; positive
carcinogen call (Species: RAT, Strain/Sex: STRAIN-CD/MALE, Route: ORAL, Dose: 0.25% IN DIET FOR 17 MO, 0.55% IN DIET FOR 10 MO, Tumor Site: Type of Lesion: LIVER: HEPATOCELLULAR CARCINOMA): active; positive
